In ChEMBL document CHEMBL1671750, “Emergence and molecular characterization of extensively drug-resistant Mycobacterium tuberculosis clinical isolates from the Delhi Region in India” (2010):
Converted amounts (≈) assume the structure as drawn. The source made the active and inactive calls. The calls are words filed in the database; no cut-off is given here.

What was measured:
[1] = test system: Mycobacterium tuberculosis; assay: Antimycobacterial activity against extensively drug-resistant Mycobacterium tuberculosis isolate 2403 obtained from sputum of patient at 1 ug/ml by Bactec MGIT960 modified proportion method; type: functional, organism-based
[2] = test system: Mycobacterium tuberculosis; assay: Antimycobacterial activity against extensively drug-resistant Mycobacterium tuberculosis isolate 2301 horboring rpoB S531L, katG R463L/E217G, gyrA D94N/S95T, rrs A1401G by CLSI method; type: functional
[3] = test system: Mycobacterium tuberculosis; assay: Antimycobacterial activity against extensively drug-resistant Mycobacterium tuberculosis isolate 2474 obtained from sputum of patient at 1 ug/ml by Bactec MGIT960 modified proportion method; type: functional, organism-based
[4] = test system: Mycobacterium tuberculosis; assay: Antimycobacterial activity against extensively drug-resistant Mycobacterium tuberculosis isolate 761 horboring rpoB S531L/Q510P, katG S315T/R463L, gyrA D94N/S95T, rrs G1484T by CLSI method; type: functional
[5] = test system: Mycobacterium tuberculosis; assay: Antimycobacterial activity against extensively drug-resistant Mycobacterium tuberculosis H37Rv by CLSI method; type: functional
[6] = test system: Mycobacterium tuberculosis; assay: Antimycobacterial activity against extensively drug-resistant Mycobacterium tuberculosis isolate 761 obtained from pus of patient at 1 ug/ml by Bactec MGIT960 modified proportion method; type: functional, organism-based
[7] = test system: Mycobacterium tuberculosis; assay: Antimycobacterial activity against extensively drug-resistant Mycobacterium tuberculosis isolate 2301 obtained from sputum of patient at 1 ug/ml by Bactec MGIT960 modified proportion method; type: functional, organism-based
[8] = test system: Mycobacterium tuberculosis; assay: Antimycobacterial activity against extensively drug-resistant Mycobacterium tuberculosis isolate 2474 horboring rpoB H526Y, katG D329A/R463L, gyrA D94G/S95T, rrs A1401G by CLSI method; type: functional
[9] = test system: Mycobacterium tuberculosis; assay: Antimycobacterial activity against extensively drug-resistant Mycobacterium tuberculosis isolate 625 horboring rpoB S531L/G566R/I569L, katG S315T/R463L, gyrA A90V/S95T, rrs A1401G by CLSI method; type: functional
[10] = test system: Mycobacterium tuberculosis; assay: Antimycobacterial activity against extensively drug-resistant Mycobacterium tuberculosis isolate 2911 horboring rpoB D516V, katG S315T/R463L, gyrA D94G/S95T/R128S/Y129C, rrs A1401G by CLSI method; type: functional
[11] = test system: Mycobacterium tuberculosis; assay: Antimycobacterial activity against extensively drug-resistant Mycobacterium tuberculosis isolate 2911 obtained from sputum of patient at 1 ug/ml by Bactec MGIT960 modified proportion method; type: functional, organism-based
[12] = test system: Mycobacterium tuberculosis; assay: Antimycobacterial activity against extensively drug-resistant Mycobacterium tuberculosis isolate 2403 obtained from sputum of patient at 100 ug/ml by Bactec MGIT960 modified proportion method; type: functional, organism-based
[13] = test system: Mycobacterium tuberculosis; assay: Antimycobacterial activity against extensively drug-resistant Mycobacterium tuberculosis isolate 625 obtained from sputum of patient at 100 ug/ml by Bactec MGIT960 modified proportion method; type: functional, organism-based
[14] = test system: Mycobacterium tuberculosis; assay: Antimycobacterial activity against extensively drug-resistant Mycobacterium tuberculosis isolate 761 obtained from pus of patient at 100 ug/ml by Bactec MGIT960 modified proportion method; type: functional, organism-based
[15] = test system: Mycobacterium tuberculosis; assay: Antimycobacterial activity against extensively drug-resistant Mycobacterium tuberculosis isolate 2301 obtained from sputum of patient at 100 ug/ml by Bactec MGIT960 modified proportion method; type: functional, organism-based
[16] = test system: Mycobacterium tuberculosis; assay: Antimycobacterial activity against extensively drug-resistant Mycobacterium tuberculosis isolate 2911 obtained from sputum of patient at 100 ug/ml by Bactec MGIT960 modified proportion method; type: functional, organism-based
[17] = test system: Mycobacterium tuberculosis; assay: Antimycobacterial activity against extensively drug-resistant Mycobacterium tuberculosis isolate 2474 obtained from sputum of patient at 100 ug/ml by Bactec MGIT960 modified proportion method; type: functional, organism-based
[18] = test system: Mycobacterium tuberculosis; assay: Antimycobacterial activity against extensively drug-resistant Mycobacterium tuberculosis isolate 625 obtained from sputum of patient at 1 ug/ml by Bactec MGIT960 modified proportion method; type: functional, organism-based
[19] = test system: Mycobacterium tuberculosis; assay: Antimycobacterial activity against extensively drug-resistant Mycobacterium tuberculosis isolate 625 obtained from sputum of patient at 4 ug/ml by Bactec MGIT960 modified proportion method; type: functional, organism-based
[20] = test system: Mycobacterium tuberculosis; assay: Antimycobacterial activity against extensively drug-resistant Mycobacterium tuberculosis isolate 761 obtained from pus of patient at 4 ug/ml by Bactec MGIT960 modified proportion method; type: functional, organism-based
[21] = test system: Mycobacterium tuberculosis; assay: Antimycobacterial activity against extensively drug-resistant Mycobacterium tuberculosis isolate 2911 obtained from sputum of patient at 4 ug/ml by Bactec MGIT960 modified proportion method; type: functional, organism-based
[22] = test system: Mycobacterium tuberculosis; assay: Antimycobacterial activity against extensively drug-resistant Mycobacterium tuberculosis isolate 2301 obtained from sputum of patient at 4 ug/ml by Bactec MGIT960 modified proportion method; type: functional, organism-based
[23] = test system: Mycobacterium tuberculosis; assay: Antimycobacterial activity against extensively drug-resistant Mycobacterium tuberculosis isolate 2474 obtained from sputum of patient at 4 ug/ml by Bactec MGIT960 modified proportion method; type: functional, organism-based
[24] = test system: Mycobacterium tuberculosis; assay: Antimycobacterial activity against extensively drug-resistant Mycobacterium tuberculosis isolate 2403 obtained from sputum of patient at 4 ug/ml by Bactec MGIT960 modified proportion method; type: functional, organism-based
[25] = test system: Mycobacterium tuberculosis; assay: Antimycobacterial activity against extensively drug-resistant Mycobacterium tuberculosis isolate 2403 obtained from sputum of patient at 0.1 ug/ml by Bactec MGIT960 modified proportion method; type: functional, organism-based
[26] = test system: Mycobacterium tuberculosis; assay: Antimycobacterial activity against extensively drug-resistant Mycobacterium tuberculosis isolate 625 obtained from sputum of patient at 0.1 ug/ml by Bactec MGIT960 modified proportion method; type: functional, organism-based
[27] = test system: Mycobacterium tuberculosis; assay: Antimycobacterial activity against extensively drug-resistant Mycobacterium tuberculosis isolate 2911 obtained from sputum of patient at 0.1 ug/ml by Bactec MGIT960 modified proportion method; type: functional, organism-based
[28] = test system: Mycobacterium tuberculosis; assay: Antimycobacterial activity against extensively drug-resistant Mycobacterium tuberculosis isolate 761 obtained from pus of patient at 0.1 ug/ml by Bactec MGIT960 modified proportion method; type: functional, organism-based
[29] = test system: Mycobacterium tuberculosis; assay: Antimycobacterial activity against extensively drug-resistant Mycobacterium tuberculosis isolate 2301 obtained from sputum of patient at 0.1 ug/ml by Bactec MGIT960 modified proportion method; type: functional, organism-based
[30] = test system: Mycobacterium tuberculosis; assay: Antimycobacterial activity against extensively drug-resistant Mycobacterium tuberculosis isolate 2474 obtained from sputum of patient at 0.1 ug/ml by Bactec MGIT960 modified proportion method; type: functional, organism-based

Row | SMILES | MIC [2] [µg/mL] | MIC [4] [µg/mL] | MIC [5] [µg/mL] | MIC [8] [µg/mL] | MIC [9] [µg/mL] | MIC [10] [µg/mL] | further results
1 | NCC[C@H](O)C(=O)N[C@@H]1C[C@H](N)[C@@H](O[C@H]2O[C@H](CN)[C@@H](O)[C@H](O)[C@H]2O)[C@H](O)[C@H]1O[C@H]1O[C@H](CO)[C@@H](O)[C@H](N)[C@H]1O [AMIKACIN] | >16 | 16 (≈ 27.3 µM) | 0.5 (≈ 0.854 µM) | >16 | >16 | >16 | Activity [1]: inactive; Activity [3]: inactive; Activity [6]: inactive; Activity [7]: inactive; Activity [11]: inactive
2 | NC(=O)c1cnccn1 |  |  |  |  |  |  | Activity [12]: inactive; Activity [13]: inactive; Activity [14]: inactive; Activity [15]: inactive; Activity [16]: Active; Activity [17]: inactive
3 | C[C@@H]1CN(c2c(F)c(N)c3c(=O)c(C(=O)O)cn(C4CC4)c3c2F)C[C@H](C)N1 [SPARFLOXACIN] | 16 (≈ 40.8 µM) | 16 (≈ 40.8 µM) | 0.5 (≈ 1.27 µM) | 16 (≈ 40.8 µM) | 8 (≈ 20.4 µM) | >16 | 
4 | N[C@@H]1CONC1=O [CYCLOSERINE] | 16 (≈ 157 µM) | >16 | 8 (≈ 78.4 µM) | 16 (≈ 157 µM) | 16 (≈ 157 µM) | 16 (≈ 157 µM) | 
5 | CO[C@H]1/C=C/O[C@@]2(C)Oc3c(C)c(O)c4c(O)c(c(/C=N/N5CCN(C)CC5)c(O)c4c3C2=O)NC(=O)/C(C)=C\C=C\[C@H](C)[C@H](O)[C@@H](C)[C@@H](O)[C@@H](C)[C@H](OC(C)=O)[C@@H]1C [RIFAMPIN] | >16 | >16 | 0.25 (≈ 0.304 µM) | >16 | >16 | 16 (≈ 19.4 µM) | Activity [1]: inactive; Activity [3]: inactive; Activity [18]: inactive; Activity [6]: inactive; Activity [7]: inactive; Activity [11]: inactive
6 | NC[C@H]1O[C@H](O[C@H]2[C@H](O)[C@@H](O[C@H]3O[C@H](CO)[C@@H](O)[C@H](N)[C@H]3O)[C@H](N)C[C@@H]2N)[C@H](O)[C@@H](O)[C@@H]1O [KANAMYCIN] | >16 | >16 | 2 (≈ 4.13 µM) | >16 | >16 | >16 | Activity [19]: inactive; Activity [20]: inactive; Activity [21]: inactive; Activity [22]: inactive; Activity [23]: Active; Activity [24]: inactive
7 | NNC(=O)c1ccncc1 [ISONIAZID] | 0.5 (≈ 3.65 µM) | 4 (≈ 29.2 µM) | 0.25 (≈ 1.82 µM) | 1 (≈ 7.29 µM) | >16 | 4 (≈ 29.2 µM) | Activity [25]: inactive; Activity [26]: inactive; Activity [27]: inactive; Activity [28]: inactive; Activity [29]: inactive; Activity [30]: inactive
